According to article PMC3433420 (PLoS ONE, 2012):
Like-named read-outs stand apart in the source and are kept apart here.

How the values were obtained:
SH2 and PTB domains = settings: original PM interactions, ref Jones et al. 2006 / Kaushansky et al. Chem and Biol 2008, cited from earlier work
Description: Supplement pone.0044471.s022.xlsx, sheet "Most recent PM interactions" | column: Kd || Supplement pone.0044471.s022.xlsx, sheet "All original PM interactions" | column: Kd

GRB7 SH2 domain [1] = molecular target: T1, GRB7 SH2 domain (Homo sapiens, UniProt Q14451); experiment: FP saturation binding assay; settings: peptides queried on both FP and PM platforms
T1 sequence (Q14451 431-527 limits assumed): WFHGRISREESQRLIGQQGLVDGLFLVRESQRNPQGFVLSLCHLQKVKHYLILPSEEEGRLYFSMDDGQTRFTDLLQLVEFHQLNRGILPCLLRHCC

GRB7 SH2 domain [2] = molecular target: T1, GRB7 SH2 domain; design: 6X His; thioredoxin; made in house; host or cells: E. coli BL21(DE3)pLysS; settings: previous protein microarray data, Figure S5; cited from earlier work

## FDNLpYYWDQDPPEd [ErbB2 pY1221, N-terminally rhodamine-labeled 13-mer phosphopeptide]
SH2 and PTB domains; Protein ABL2
  Kd: 0.5 µM
SH2 and PTB domains; Protein BLK
  Kd: 1.2 µM
SH2 and PTB domains; Protein BLNK
  Kd: 1.56 µM
SH2 and PTB domains; Protein BMX
  Kd: 2 µM
SH2 and PTB domains; Protein FGR
  Kd: 2 µM
SH2 and PTB domains; Protein GRB10
  Kd: 0.12 µM
SH2 and PTB domains; Protein GRB14
  Kd: 1.4 µM
SH2 and PTB domains; Protein ITK
  Kd: 1.52 µM
SH2 and PTB domains; Protein LYN
  Kd: 0.93 µM
SH2 and PTB domains; Protein PIK3R1-C
  Kd: 2 µM
SH2 and PTB domains; Protein PIK3R1-NC
  Kd: 1.16 µM
SH2 and PTB domains; Protein PIK3R2-N
  Kd: 0.95 µM
SH2 and PTB domains; Protein PIK3R2-NC
  Kd: 2 µM
SH2 and PTB domains; Protein PIK3R3-C
  Kd: 1.91 µM
SH2 and PTB domains; Protein PIK3R3-N
  Kd: 2 µM
SH2 and PTB domains; Protein PIK3R3-NC
  Kd: 2 µM
SH2 and PTB domains; Protein PLCG1-C
  Kd: 2 µM
SH2 and PTB domains; Protein PLCG1-N
  Kd: 1.93 µM
SH2 and PTB domains; Protein PLCG1-NC
  Kd: 1.96 µM
SH2 and PTB domains; Protein PLCG2-N
  Kd: 2 µM
SH2 and PTB domains; Protein PLCG2-NC
  Kd: 2 µM
SH2 and PTB domains; Protein PTPN11-N
  Kd: 2 µM
SH2 and PTB domains; Protein RASA1-N
  Kd: 0.37 µM
SH2 and PTB domains; Protein RASA1-NC
  Kd: 0.9 µM
SH2 and PTB domains; Protein SH2D3A
  Kd: 1.28 µM
SH2 and PTB domains; Protein SH2D3C
  Kd: 0.16 µM
SH2 and PTB domains; Protein SH3BP2
  Kd: 2 µM
SH2 and PTB domains; Protein SHB
  Kd: 0.21 µM
SH2 and PTB domains; Protein SHC1-PTB
  Kd: 0.17 µM
SH2 and PTB domains; Protein SHC2-PTB
  Kd: 0.43 µM
SH2 and PTB domains; Protein SHD
  Kd: 2 µM
SH2 and PTB domains; Protein SHF
  Kd: 0.34 µM
SH2 and PTB domains; Protein SLA2
  Kd: 1.44 µM
SH2 and PTB domains; Protein SLA
  Kd: 1.07 µM
SH2 and PTB domains; Protein SOCS1
  Kd: 1.23 µM
SH2 and PTB domains; Protein SRC
  Kd: 0.035 µM
SH2 and PTB domains; Protein SUPT6H
  Kd: 1.57 µM
SH2 and PTB domains; Protein SYK-C
  Kd: 2 µM
SH2 and PTB domains; Protein SYK-N
  Kd: 0.26 µM
SH2 and PTB domains; Protein SYK-NC
  Kd: 0.41 µM
SH2 and PTB domains; Protein TEC
  Kd: 0.77 µM
SH2 and PTB domains; Protein TXK
  Kd: 1.23 µM
SH2 and PTB domains; Protein VAV2
  Kd: 1.75 µM
SH2 and PTB domains; Protein VAV3
  Kd: 1.65 µM
SH2 and PTB domains; Protein YES1
  Kd: 0.045 µM
SH2 and PTB domains; Protein ZAP70-NC
  Kd: 1.44 µM
GRB7 SH2 domain [1]
  interaction with GRB7 on the FP platform: only displayed interactions with GRB7 from the PM platform
GRB7 SH2 domain [2]
  interaction with GRB7 on the PM platform: only displayed interactions with GRB7 from the PM platform
